This note sets out measurements from US5374772A, “Substituted benzoic acids, inhibitors of phospholipases A2” (Hoffmann-LaRoche Inc., priority 1993, dated 1994).

The target of test [1] is T1, HSF-PLA2 (extracellular PLA2 obtained from human synovial fluid) (Homo sapiens, UniProt P14555).
T1 construct: extracellular enzyme obtained from human synovial fluid; from tissue; host or cells: pooled human synovial fluid (0.1% v/v in the assay)
T1 sequence (P14555 21-144): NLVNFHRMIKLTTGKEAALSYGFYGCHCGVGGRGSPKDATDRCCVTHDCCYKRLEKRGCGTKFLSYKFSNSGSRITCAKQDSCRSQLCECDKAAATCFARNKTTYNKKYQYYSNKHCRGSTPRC
The test can be described thus: Assay for Inhibition of HSF-PLA2 In Vitro. In kind it is biochemical. Conditions: for IC50: given as 50 % inhibition at the given concentration, 14C-oleate-labelled E. coli substrate, pH 7.3, 37° C., 30 minutes, read-out: % Inhib of HSF-PLA2: 50 (concentration) = IC50 (μM concentration that produces 50% inhibition of PLA2 activity). As for the experimental part: The PLA2 used in this test is the extracellular enzyme obtained from human synovial fluid (HSF-PLA2). The assay for HSF-PLA2 activity was a modification of the described method [Franson R., Dobrow R., Weiss, J., Elsbach P., and […]. Lipid Res., 19, 18-23 (1978)] which was conducted using [1-^14 C]-oleate-labelled E. coli substrate in excess at a final concentration of 20,000 dpm/ml. This was equivalent to 18.2 mM of cell membrane phospholipid phosphorus and 2×10^9 autoclaved E. coli/ml. The optimal conditions which were developed for the assay of HSF-PLA2 inhibitors are summarized as follows. […] The reaction was terminated by the addition of 2.5 ml of chloroform-methanol (1 to 1.5, v/v). The extraction of lipids from the stopped reaction mixture was conducted by the further additions of 0.5 ml of chloroform and 1 ml of water with mixing. […] The extracted lipid residue was redissolved in […] of a solution containing carrier oleic acid (0.2 mg/ml) of […]]). […] This TLC system rapidly (6 minutes) resolved the enzymatically released product, ^14 C-oleic acid, from the unreacted ^14 C-phospholipid substrate. The unsaturated lipids were located on the chromatogram by a brief exposure to iodine vapor. The oleic acid zone (Rf value 0.95) and phospholipid zone (origin) were cut out, chopped into small pieces, shaken with 2 ml of ethanol-water (80 to 20, v/v) and 15 ml of Aquasol and counted for radioactivity. A control incubation of substrate in the absence of HSF-PLA2 was performed in each experiment. The PLA2 activity of the human synovial fluid was corrected for this small control value. […] The specific activity of PLA2 in the pooled human synovial fluid under the optimal assay conditions was 49.2 nmoles [1-^14 C]-oleic acid released hour^-1 mg^-1. The IC50 (μM concentration of test compound that produces 50% inhibition of PLA2 activity) was determined for each test compound.

In test [2] the test system is croton oil-induced mouse ear edema. The test can be described thus: Croton Oil Mouse Ear Edema Test. In kind it is in vivo, male CD-1 mice. Conditions: 1 mg topical, coapplied with croton oil, ear punch weight at 6 hours. As for the experimental part: The croton oil-induced mouse ear edema test, a model of irritant-induced contact dermatitis, has been used for evaluation of the PLA2 inhibitors by the topical route of administration. This test was carried out as described in the following references:
The major active ingredient in croton oil is the tumor promoter 12-O-tetradecanoylphorbol-13-acetate (TPA) and the topical application of TPA to mouse skin has been reported to cause an increase in epidermal PGE2 production as well as an increase in epidermal cell membrane PLA2 activity. Indomethacin, an inhibitor of prostaglandin synthesis, prevented the TPA-mediated increase in epidermal PGE2 levels as well as the TPA-mediated induction of epidermal cell ornithine decarboxylase. Furthermore, the application of PGE2 to mouse skin countered the inhibitory effect of indomethacin upon TPA-stimulated cellular proliferation.
Twenty five μl of a 1% croton oil solution [dissolved in a mixture of pyridine/water/diethyl ether at a ratio of 5/20/75 (croton oil vehicle)] are applied to the outer side of the right ear of 3-4 week old male CD-1 mice (8 animals per group). The test compounds are dissolved directly in the 1% croton oil solution at various concentrations and coapplied. Control animals receive 25 μl of croton oil vehicle on the right ear. Biopsy punches are removed at 6 hours from the fight ear of the animals using a 6 mm skin trephine (Roboz, Washington, D.C.) and the wet weight of the ear punches is determined. The weight of the biopsy punches is a measure of ear inflammation, primarily edema. The data are expressed as percent inhibition relative to control groups.
Statistical analysis of the mean edema values of the control versus the treated groups is performed using Student's t-test. The significance of changes from the mean value for vehicle-treated (control) animals in the following Tables is indicated as follows: *p<0.05, **p<0.01, ***p<0.005,ns/not significant.

Test [3] has as its system TPA-induced mouse ear edema. The test can be described thus: TPA Induced Mouse Ear Edema Test (ear punch weight). In kind it is in vivo, male CD-1 mice. The note with it: Mus musculus; 0.3 mg topical, 30 minutes prior to TPA, ear punch weight at 6 hours; read-out: % Inhib of TPA Mouse Ear Edema (0.3 mg). As for the experimental part: The TPA-induced mouse ear edema test, a model of irritant-induced contact dermatitis is described in the following reference: J. M. Young, B. M. Wagner and […]. Invest. Dermatology 80, 48-52 (1983). For this test, 10 μl of 12-O-tetradecanoylphorbol-13-acetate (TPA), dissolved in a vehicle of pyridine: water: diethyl ether (20:5:75), was applied to the outside of the right ear of 3-4 week old male CD-1 mice (8 animals per group). The test compounds were dissolved in the same vehicle and 10 μl was applied to the inside of the same ear 30 minutes prior to the application of TPA. Ear punches (6 mm) were removed at 6 hours after TPA application, weighed and assayed for myeloperoxidase (MPO) activity as described in the following reference: P. P. Bradley, […]. Christensen and G. Rothstein, J. Invest. Dermatology 78, 206-209 (1982). The wet weight of the ear biopsy punches is a measure of the ear edema and the level of MPO activity in the ear punches is an indicator of neutrophil infiltration. The data are expressed as percent inhibition of drug-[…] relative to the control group.

Test [4] concerns myeloperoxidase (MPO) activity, indicator of neutrophil infiltration. The test can be described thus: TPA mouse ear test, myeloperoxidase activity in ear punches. In kind it is in vivo, male CD-1 mice. The note with it: 0.3 mg topically. As for the experimental part:
For this test, 10 μl of 12-O-tetradecanoylphorbol-13-acetate (TPA), dissolved in a vehicle of pyridine: water: diethyl ether (20:5:75), was applied to the outside of the right ear of 3-4 week old male CD-1 mice (8 animals per group). The test compounds were dissolved in the same vehicle and 10 μl was applied to the inside of the same ear 30 minutes prior to the application of TPA. Ear punches (6 mm) were removed at 6 hours after TPA application, weighed and assayed for myeloperoxidase (MPO) activity as described in the following reference: P. P. Bradley, D. A. Priebat, R. D. Christensen and G. Rothstein, J. Invest. Dermatology 78, 206-209 (1982). The wet weight of the ear biopsy punches is a measure of the ear edema and the level of MPO activity in the ear punches is an indicator of neutrophil infiltration. The data are expressed as percent inhibition of drug-treatedanimals relative to the control group.

Test [5] has as its system carrageenan-induced paw edema. The test can be described thus: Rat Carrageenan Paw Edema. In kind it is in vivo, Lewis rats. The note with it: 30 mg/kg ip, measured at 2 hours after carrageenan injection. On the procedure:
Representative compounds of the invention were tested in the rat carrageenan-induced paw edema test to determine their ability to inhibit this acute inflammatory response. Test compounds were administered intraperitoneally or orally to groups of seven Lewis rats (~200 gm) 1 hr prior to carrageenan administration. The test compounds were dissolved in dimethyl sulfoxide for intraperitoneal administration and dissolved or suspended in Labrafil […] for oral administration. At 0 hour, 0.1 mL of 1% carrageenan dissolved in pyrogen free saline was injected subplantarly into the right hind paw to elicit the inflammatory response. The volume (in mL) of the right hind paw was measured by immersion of the paw to the level of the lateral malleolus in an aqueous plethysmometer immediately prior to the injection of carrageenan and then at 1, 2 and 4 hr after carrageenan injection. The paw edema was calculated by subtracting the zero time reading from the readings taken after injection. The percent change of the edema volume from the vehicle treated control was calculated to determine the activity of the test compound. Statistical analysis of the mean paw edema values of the control versus the treated groups was performed using Student's t-test.
Background: In the carrageenan paw model, swelling and tenderness develop within hours.

With `CCCCCCCCCCCCCCCCCCOc1cc(OC(=O)C(c2ccccc2)c2ccccc2)cc(C(=O)O)c1` [Example 11, 3-(Octadecyloxy)-5-(2,2-diphenyl-1-oxoethoxy) benzoic acid], the IC50 in test [1] is 0.3 µM. The “% Inhib of Croton Oil Mouse Ear Edema (1 mg)” value (“% Inhib … (1 mg)” below) in test [2] was 71%.

`CCCCCCCCCCCCCCCCCCOc1cc(OC(=O)C23CC4CC(CC(C4)C2)C3)cc(C(=O)O)c1` [Example 13, 3-(Octadecyloxy)-5-[(tricyclo[3.3.1./3,7/]dec-1-ylcarbonyl)oxy]benzoic acid]: the inhibition at 5 µM in test [1] (5 μM, read-out: % Inhib of HSF-PLA2) is 86%. For the same compound, the “% Inhib … (1 mg)” value in test [2] is given as 81%.

As for `CCCCCCCCCCCCCCCCCCOc1cc(OCCCOc2ccccc2)cc(C(=O)O)c1` [Example 17, 3-(Octadecyloxy)-5-(3-phenoxypropoxy)benzoic acid], in test [1], the IC50 stood at 1.4 µM. The “% Inhib … (1 mg)” value in test [2] turned out to be 81%.

For `CCCCCCCCCCCCCCCCCCOc1cc(OCCCOc2ccc(OCc3ccccc3)cc2)cc(C(=O)O)c1` [Example 30, 3-[[3-(4-Phenylmethoxy)phenoxy]propoxy]-5-(octadecyloxy)benzoic acid], in test [2], the “% Inhib … (1 mg)” value is 62%.

As for `CCCCCCCCCCCCCCCCCCOc1cc(OCCCOc2ccc(O)cc2)cc(C(=O)O)c1` [Example 31, 3-[3-(4-Hydroxyphenoxy)propoxy]-5-(octadecyloxy) benzoic acid], the inhibition at 1 µM in test [1] (1 μM, read-out: % Inhib of HSF-PLA2) was 37%. Also, the “% Inhib … (1 mg)” value in test [2] is recorded as 84%. Further, the inhibition in vivo at 0.3 mg in test [3] stood at 58%. In addition, the “% Inhib of myeloperoxidase in the TPA mouse ear test” value (from here on “% Inhib of myeloperoxidase”) in test [4] is on record as 70%. Besides, the “inhibition of the edema (rat carrageenan paw edema)” value in test [5] was 55%.

For the compound `CCCCCCCCCCOc1cc(OCCCOc2ccc(O)cc2)cc(C(=O)O)c1` [Example 40, 3-(Decyloxy)-5-[3-(4-hydroxyphenoxy)propoxy]benzoic acid], the IC50 in test [1] came out at 8.8 µM. The inhibition in vivo at 0.3 mg in test [3] came out at 58%. For the same compound, in test [4], the “% Inhib of myeloperoxidase” value is on record as 72%.

In the case of `CCCCCCCCCCCCCCCCCCOc1cccc(C(=O)O)c1OCCCOc1ccc(O)cc1` [Example 58, 2-[3-(4-Hydroxyphenoxy)propoxy]-3-(octadecyloxy) benzoic acid], the inhibition at 10 µM in test [1] (read-out: % Inhib of HSF-PLA2) was determined as 93%. The inhibition in vivo at 0.3 mg in test [3] was 48%. In addition, the “% Inhib of myeloperoxidase” value in test [4] is 62%.

Turning to `CCCCCCCCCCCCCCOc1cc(OCCCCCCc2cccc(O)c2O)cc(C(=O)O)c1` [Example 63, 3-[[6-(2,3-dihydroxyphenyl)hexyl]oxy]-5-(tetradecyloxy)benzoic acid], the inhibition at 10 µM in test [1] (read-out: % Inhib of HSF-PLA2) was found to be 88%. Further, the inhibition in vivo at 0.3 mg in test [3] is 61%. In addition, the “% Inhib of myeloperoxidase” value in test [4] was 61%.

With `CCCCCCCCCCOc1cc(OCCCCCCc2cccc(O)c2O)cc(C(=O)O)c1` [Example 68, 3-(Decyloxy)-5-[[6-(2,3-dihydroxyphenyl)hexyl]oxy]benzoic acid], the inhibition at 20 µM in test [1] (20 μM, read-out: % Inhib of HSF-PLA2) is 74%. Further, in test [3], the inhibition in vivo at 0.3 mg stood at 58%. Further, in test [4], the “% Inhib of myeloperoxidase” value came out at 89%.
